Patent US11033538B2, “Dosing regimens for the treatment of lysosomal storage diseases using pharmacological chaperones” (Amicus Therapeutics, Inc., priority 2007, dated 2021)
Numbering of substitutions follows the chain as printed. Like-named read-outs stand apart in the source and are kept apart here.

Legend:
[1] = Pharmacokinetics of 1-Deoxynorjirimycin; settings: is believed
in vivo = settings: plasma
rats [2] = settings: rat, in vivo
monkeys [3] = settings: monkey, in vivo
[4] = Clinical safety and tolerability of 1-Deoxynorjirimycin, single and repeat doses; format: in vivo, human
[5] = Example 10, pharmacokinetic/tissue distribution of isofagomine in rats; format: in vivo
Method: A single dose of 600 mg/kg of isofagomine was administered to rats via PO gavage. The concentration of isofagomine (μM) in plasma, liver, spleen and brain tissue was ascertained at regular time intervals at dosing (t=0) through 48 hours after dosing.

[6] = Phase 1 multiple-dose study of IFG in healthy subjects, plasma pharmacokinetics; format: in vivo, human; settings: for Cmax / half-life / Tmax: human, plasma
Method: (§1) Blood samples were collected for pharmacokinetic analysis before the initial drug administration on Day 1, before the 5th, 6th and 7th doses (on Days 5, 6 and 7) (for Cmin determination), and at the following times after the 1st (Day 1) and 7th (Day 7) doses: 0.5, 1, 1.5, 2, 3, 4, 5, 6, 8, 10, 12, 15, 18, and 24 hours. […] In addition, blood samples were collected for pharmacodynamic measurements, i.e., analysis of WBC GCase levels, before dosing on Day 1, Day 3, Day 5, and Day 7, and at return visits on Day 9, Day 14 and Day 21.

GCase [7] = assay: GCase levels and trafficking in vitro with IFG (fibroblasts of GD patients); format: cell-based, human
Excerpt: (§2) In the lysosome, when the pharmacological chaperone dissociates from the enzyme, the enzyme can perform its normal function, which is to catalyze the breakdown of glucosylceramide (GlcCer), the GCase substrate.

GCase [8] = assay: GCase activity in Gaucher patient-derived fibroblasts, lymphoblasts and macrophages after IFG for 5 days; format: cell-based, human; settings: lymphoblast and macrophages
Excerpt: FIGS. 4A, 4B, and 4C. […] FIG. 4A depicts GCase activity in fibroblasts; FIG. 4B depicts GCase activity in lymphoblasts; and FIG. 4C depicts GCase activity in macrophages.

GCase [9] = biological target: T1, GCase (Homo sapiens, UniProt P04062); assay: WBC GCase levels in healthy subjects receiving IFG (Phase 1 multiple-dose study); format: in vivo
T1 construct: endogenous in cells; host or cells: white blood cells of healthy subjects; healthy human skin fibroblasts
T1 sequence (P04062 40-536): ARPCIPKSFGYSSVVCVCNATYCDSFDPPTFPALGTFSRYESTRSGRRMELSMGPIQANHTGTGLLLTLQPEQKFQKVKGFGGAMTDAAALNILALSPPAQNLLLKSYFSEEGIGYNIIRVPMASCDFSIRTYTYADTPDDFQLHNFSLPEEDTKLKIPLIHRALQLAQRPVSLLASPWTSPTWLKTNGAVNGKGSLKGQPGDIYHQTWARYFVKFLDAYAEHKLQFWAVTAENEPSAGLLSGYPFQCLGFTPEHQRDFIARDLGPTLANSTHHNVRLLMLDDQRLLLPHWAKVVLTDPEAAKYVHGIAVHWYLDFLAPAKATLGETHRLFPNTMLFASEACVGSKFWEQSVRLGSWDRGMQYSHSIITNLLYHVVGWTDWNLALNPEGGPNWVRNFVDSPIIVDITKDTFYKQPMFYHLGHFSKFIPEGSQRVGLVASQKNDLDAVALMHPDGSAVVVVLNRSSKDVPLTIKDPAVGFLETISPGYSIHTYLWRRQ
Method: as §1

N370S GCase = biological target: T2, N370S GCase (Homo sapiens, UniProt P04062, N409S); assay: Expected N370S GCase accumulation parameters estimated from wild-type PK/PD
T2 sequence (P04062 40-536 N409S): T1 sequence (P04062 40-536) with N370S
Excerpt: For example, the most prevalent mutation in Gaucher disease is N370S. […] Accordingly, the rate of N370S turnover and the dose that will yield the maximum rate of GCase accumulation, can be estimated based on the differences in PK and PD parameters as compared with the wild-type enzyme: […]

monkeys [10] = assay: Nonclinical toxicology studies of IFG, monkeys; format: in vivo
Excerpt: as §2

GCase [11] = assay: IFG in a mouse model of GD; format: in vivo
Excerpt: as §2

rats [12] = assay: Nonclinical toxicology studies of IFG, rats; format: in vivo
Excerpt: as §2

Question: For OC[C@H]1NC[C@H](O)[C@@H](O)[C@@H]1O [1-Deoxynorjirimycin, (2R,3R,4R,5S)-2-(hydroxymethyl) piperidine-3,4,5-triol], which oral bioavailability [1] is on record?
Answer: Its oral bioavailability is “high oral bioavailability”.

Question: And the half-life (in vivo)?
Answer: The half-life was 4 to 8 h.

Question: And the “tolerability in short-term safety studies” value (rats [2])?
Answer: The value was “well tolerated”.

Question: And the “tolerability in short-term safety studies” value (monkeys [3])?
Answer: The value was “well tolerated”.

Question: What about the “repeat doses (safe and well tolerated)” value ([4]; for 2 weeks) of the same compound?
Answer: Its value is “up to 2 grams per day”.

Question: And the “severity of adverse events” value ([4]; patients receiving drug)?
Answer: The value was “mild or moderate in severity”.

Question: And the “single doses appearing safe and well tolerated” value ([4]; single doses)?
Answer: Its value is “up to 600 mg”.

Question: With OC[C@H]1CNC[C@@H](O)[C@@H]1O [IFG, (2R,3R,4R)-5-(hydroxymethyl)-piperidine-3,4-diol] as the compound, how does the “time after which levels fall below the GCASE Ki value” ([5]; liver and plasma, single 600 mg/kg PO) read?
Answer: Its value is 48 h.

Question: And the “time for all tissues to attain levels exceeding the GCase enhancement EC50” value ([5]; single 600 mg/kg PO gavage, plasma, liver, spleen, brain)?
Answer: The value was at most 15 min.

Question: What about the clearance from tissue ([5]; spleen and brain tissue) of the same compound?
Answer: The clearance from tissue was “slower clearance”.

Question: And the pharmacokinetic behavior ([6]; after 7 days of oral administration, 25, 75 or 225 mg daily)?
Answer: The pharmacokinetic behavior was “linear with dose”.

Question: What about the Cmax ([6]; oral, 25 mg) of the same compound?
Answer: The Cmax was 310 nM.

Question: What about the Cmax ([6]; oral, 150 mg) of the same compound?
Answer: The Cmax was 1700 nM.

Question: And the half-life ([6]; oral, healthy subjects, multiple-dose study, SEM: 2 hr., read-out: plasma elimination half-life (converted))?
Answer: Its half-life is about 14 h.

Question: What about the half-life ([6]; oral, read-out: Half-life (converted)) of the same compound?
Answer: Its half-life is 14 h.

Question: And the Tmax ([6]; oral, read-out: Tmax)?
Answer: Its Tmax is 3 h.

Question: What about the Tmax ([6]; healthy subjects, multiple-dose study, 7 days oral, SEM: 0.6 hr., read-out: Mean plasma levels (Tmax) peaked) of the same compound?
Answer: Its Tmax is about 3.4 h.

Question: What about the “GCase trafficking to the lysosome” value (GCase [7]; fibroblasts of GD patients) of the same compound?
Answer: The value was “increases GCase trafficking to the lysosome in fibroblasts of GD patients”.

Question: What about the “GCase total cellular enzyme levels” value (GCase [7]; in vitro) of the same compound?
Answer: Its value is “increases GCase total cellular enzyme levels in vitro”.

Question: And the “IFG concentration range at which maximum chaperoning (Emax) occurs” value (GCase [8])?
Answer: The value was 10 to 100 µM.

Question: And the “Daily dose that yields max rate of accumulation during Initial Enzyme Build-Up phase” value (GCase [9]; Wild-type)?
Answer: Its value is at most 75 mg.

Question: What about the “Max. rate of enzyme loss” value (GCase [9]; Wild-type) of the same compound?
Answer: Its value is about −3.5 Units/day.

Question: And the “Max. rate of enzyme accumulation” value (GCase [9]; Wild-type, 1 unit = 1 nmole of 4-MU liberated per mg of total protein per hour)?
Answer: The value was about 7 Units/day.

Question: And the “lowest daily dose that achieved the maximum rate of GCase accumulation over 7 days” value (GCase [9]; healthy subjects)?
Answer: The value was “about 75 mg”.

Question: What about the “maximum increase in GCase enzyme level in white blood cells” value (GCase [9]; healthy subjects, 7-day treatment) of the same compound?
Answer: Its value is “approximately 3.5 fold above baseline”.

Question: What about the “Daily dose that yields max rate of accumulation during Initial Enzyme Build-Up phase” value (N370S GCase) of the same compound?
Answer: Its value is at most 150 to 300 mg.

Question: What about the “Max. rate of enzyme accumulation” value (N370S GCase) of the same compound?
Answer: The value was about 0.35 Units/day.

Question: And the “Max. rate of enzyme loss” value (N370S GCase)?
Answer: Its value is about −0.17 Units/day.

Question: What about the “safety and tolerability of repeated dosing” value (monkeys [10]) of the same compound?
Answer: Its value is “generally safe and well tolerated”.

Question: What about the “plasma levels of chitinase and IgG” value (GCase [11]) of the same compound?
Answer: Its value is “reduces plasma levels of chitinase and immunoglobulin G (IgG)”.

Question: What about the “tissue GCase activity” value (GCase [11]) of the same compound?
Answer: The value was “increases tissue GCase activity”.

Question: What about the “safety and tolerability of repeated dosing” value (rats [12]) of the same compound?
Answer: The value was “generally safe and well tolerated”.
